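Following 48 hours of exposure in 96-well plates, responses at five concentrations were used to interpolate endpoints linearly. The concentration for 50% growth inhibition is given as GI50. TGI is the concentration that stops growth completely.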
Tests used:
Experiment in all cases: NCI tumour cell line growth inhibition, 48 h
HCT-116 colon = test system: HCT-116 colon
RPMI-8226 leukemia = test system: RPMI-8226 leukemia
OVCAR-8 ovarian = test system: OVCAR-8 ovarian
OVCAR-3 ovarian = test system: OVCAR-3 ovarian
KM12 colon = test system: KM12 colon
NCI-H23 lung = test system: NCI-H23 lung
A549 NSCLC = test system: A549 NSCLC
NCI-H522 lung = test system: NCI-H522 lung
MCF7 breast = test system: MCF7 breast
DU-145 prostate = test system: DU-145 prostate
NCI-H460 lung = test system: NCI-H460 lung
K-562 leukemia = test system: K-562 leukemia
NCI-H226 lung = test system: NCI-H226 lung
HOP-92 NSCLC = test system: HOP-92 NSCLC
UO-31 renal = test system: UO-31 renal
SNB-75 CNS = test system: SNB-75 CNS
RXF 393 renal = test system: RXF 393 renal
U251 CNS = test system: U251 CNS
SK-MEL-28 melanoma = test system: SK-MEL-28 melanoma
HT29 colon = test system: HT29 colon
SF-295 CNS = test system: SF-295 CNS
HS 578T breast = test system: HS 578T breast
SF-539 CNS = test system: SF-539 CNS
COLO 205 colon = test system: COLO 205 colon
SF-268 CNS = test system: SF-268 CNS
IGROV1 ovarian = test system: IGROV1 ovarian
UACC-257 melanoma = test system: UACC-257 melanoma
LOX IMVI melanoma = test system: LOX IMVI melanoma
MDA-MB-435 = test system: MDA-MB-435
M14 melanoma = test system: M14 melanoma
SN12C renal = test system: SN12C renal
BT-549 breast = test system: BT-549 breast
HL-60(TB) leukemia = test system: HL-60(TB) leukemia
CAKI-1 renal = test system: CAKI-1 renal
CCRF-CEM leukemia = test system: CCRF-CEM leukemia
SK-OV-3 ovarian = test system: SK-OV-3 ovarian
SK-MEL-2 melanoma = test system: SK-MEL-2 melanoma
HCT-15 colon = test system: HCT-15 colon
MALME-3M melanoma = test system: MALME-3M melanoma
SNB-19 CNS = test system: SNB-19 CNS
ACHN renal = test system: ACHN renal
SK-MEL-5 melanoma = test system: SK-MEL-5 melanoma
TK-10 renal = test system: TK-10 renal
UACC-62 melanoma = test system: UACC-62 melanoma
MOLT-4 leukemia = test system: MOLT-4 leukemia
EKVX NSCLC = test system: EKVX NSCLC
SW-620 colon = test system: SW-620 colon
HOP-62 NSCLC = test system: HOP-62 NSCLC
MDA-MB-231 breast = test system: MDA-MB-231 breast
SR leukemia = test system: SR leukemia
OVCAR-4 ovarian = test system: OVCAR-4 ovarian
HCC-2998 colon = test system: HCC-2998 colon
T-47D breast = test system: T-47D breast
786-0 renal = test system: 786-0 renal
PC-3 prostate = test system: PC-3 prostate
OVCAR-5 ovarian = test system: OVCAR-5 ovarian
A498 renal = test system: A498 renal
NCI/ADR-RES ovarian = test system: NCI/ADR-RES ovarian

## O=c1oc2ccc(I)cc2c(=O)n1-c1ccc(F)cc1F
HCT-116 colon
  GI50: 2.14 µM
  TGI: 5.2 µM
RPMI-8226 leukemia
  GI50: 1.49 µM
  TGI: 4.83 µM
OVCAR-8 ovarian
  GI50: 2.86 µM
  TGI: 13.2 µM
OVCAR-3 ovarian
  GI50: 2.67 µM
  TGI: 13 µM
KM12 colon
  GI50: 2.51 µM
  TGI: 6.8 µM
NCI-H23 lung
  GI50: 2.14 µM
  TGI: 7.94 µM
A549 NSCLC
  GI50: 2.93 µM
  TGI: 19.8 µM
NCI-H522 lung
  GI50: 2.65 µM
  TGI: 10.2 µM
MCF7 breast
  GI50: 2.38 µM
  TGI: 49.1 µM
DU-145 prostate
  GI50: 3.57 µM
  TGI: 58.5 µM
NCI-H460 lung
  GI50: 2.8 µM
  TGI: 12.8 µM
K-562 leukemia
  GI50: 2.56 µM
  TGI: > 100 µM
NCI-H226 lung
  GI50: 2.41 µM
  TGI: 12.7 µM
HOP-92 NSCLC
  GI50: 0.7 µM
  TGI: 3.78 µM
UO-31 renal
  GI50: 1.48 µM
  TGI: 5.71 µM
SNB-75 CNS
  GI50: 1.26 µM
  TGI: 3.96 µM
RXF 393 renal
  GI50: 2.44 µM
  TGI: 6.09 µM
U251 CNS
  GI50: 2.64 µM
  TGI: 19 µM
SK-MEL-28 melanoma
  GI50: 1.76 µM
  TGI: 6.25 µM
HT29 colon
  GI50: 3.4 µM
  TGI: 15.4 µM
SF-295 CNS
  GI50: 1.87 µM
  TGI: 3.74 µM
HS 578T breast
  GI50: 2.04 µM
  TGI: 6.55 µM
SF-539 CNS
  GI50: 2.79 µM
  TGI: 9.51 µM
COLO 205 colon
  GI50: 3.39 µM
  TGI: 13.1 µM
SF-268 CNS
  GI50: 2.86 µM
  TGI: 27.1 µM
IGROV1 ovarian
  GI50: 2.07 µM
  TGI: 33.2 µM
UACC-257 melanoma
  GI50: 2.01 µM
  TGI: 6.12 µM
LOX IMVI melanoma
  GI50: 2.51 µM
  TGI: 10.9 µM
MDA-MB-435
  GI50: 2.87 µM
  TGI: 9.18 µM
M14 melanoma
  GI50: 1.71 µM
  TGI: 5.88 µM
SN12C renal
  GI50: 2.36 µM
  TGI: 8.91 µM
BT-549 breast
  GI50: 1.91 µM
  TGI: 4.98 µM
HL-60(TB) leukemia
  GI50: 2.04 µM
  TGI: 5.12 µM
CAKI-1 renal
  GI50: 1.8 µM
  TGI: 6.6 µM
CCRF-CEM leukemia
  GI50: 3.24 µM
  TGI: 19.2 µM
SK-OV-3 ovarian
  GI50: 1.16 µM
  TGI: 4.17 µM
SK-MEL-2 melanoma
  GI50: 2.15 µM
  TGI: 5.73 µM
HCT-15 colon
  GI50: 2.71 µM
  TGI: 11.4 µM
MALME-3M melanoma
  GI50: 1.94 µM
  TGI: 5.89 µM
SNB-19 CNS
  GI50: 2.63 µM
  TGI: > 100 µM
ACHN renal
  GI50: 2.52 µM
  TGI: 8.42 µM
SK-MEL-5 melanoma
  GI50: 1.53 µM
  TGI: 3.03 µM
TK-10 renal
  GI50: 4.43 µM
  TGI: 10.6 µM
UACC-62 melanoma
  GI50: 1.31 µM
  TGI: 4.19 µM
MOLT-4 leukemia
  GI50: 2.39 µM
  TGI: 6.88 µM
EKVX NSCLC
  GI50: 1.98 µM
  TGI: 8.1 µM
SW-620 colon
  GI50: 2.73 µM
  TGI: 11.6 µM
HOP-62 NSCLC
  GI50: 2.16 µM
  TGI: 6.09 µM
MDA-MB-231 breast
  GI50: 1.89 µM
  TGI: 6.01 µM
SR leukemia
  GI50: 3.02 µM
  TGI: > 100 µM
OVCAR-4 ovarian
  GI50: 2.07 µM
  TGI: 8.97 µM
HCC-2998 colon
  GI50: 3.23 µM
  TGI: 13.9 µM
T-47D breast
  GI50: 1.99 µM
  TGI: 6 µM
786-0 renal
  GI50: 3.03 µM
  TGI: 9.67 µM
PC-3 prostate
  GI50: 2.24 µM
  TGI: 6.94 µM
OVCAR-5 ovarian
  GI50: 3.96 µM
  TGI: > 100 µM
A498 renal
  GI50: 1.19 µM
  TGI: 2.92 µM
NCI/ADR-RES ovarian
  GI50: 2.64 µM
  TGI: 13.4 µM

Source: PubChem BioAssay (NCI)
